Each structure is given as a SMILES string.

We go through eight compounds from patent publication US7897588B2, “Agents and methods for enhancing bone formation” (The Regents of the University of California, priority 2003, dated 2011).

The test system of data set [1] is M2-10B4 mouse marrow stromal cell line. The data set can be described thus: Alkaline phosphatase (ALP) activity assay in M2 cells. It is filed as cell-based. Particulars: for inhibition of oxysterol-induced alkaline phosphatase activity: 22R+20S, SC-560 10 μM, ACA 25 μM, AACOCF3 20 μM, PD98059 20 μM. As for the experimental part:
(§1) Cells: M2-10B4 mouse marrow stromal cell line obtained from American Type Culture Collection (ATCC, Rockville, Md., U.S.A.) was derived from bone marrow stromal cells of a (C57BL/6J×C3H/HeJ) F1 mouse, and support human and murine myelopoiesis in long-term cultures (as per ATCC) and have the ability to differentiate into osteoblastic and adipocytic cells. Unless specified, these cells were cultured in RPMI 1640 containing 10% heat-inactivated FBS, and supplemented with 1 mM sodium pyruvate, 100 U/ml penicillin, and 100 […] (all from Irvine Scientific).
Alkaline phosphatase activity assay: Colorimetric alkaline phosphatase (ALP) activity assay on whole cell extracts was performed as previously described.
Test 1: M2 cells at confluence were treated with control vehicle (C), or 10 μM oxysterols, in an osteogenic medium consisting of RPMI 1640 to which 10% fetal bovine serum (FBS), 50 μg/ml ascorbate and 3 mM beta-glycerophosphate (βGP) were added. After 3 days of incubation, alkaline phosphatase (ALP) activity was determined in cell homogenates by a colorimetric assay. […] FIG. 3A is a bar graph depicting the effect of various oxysterols on alkaline phosphatase activity in M2 cells.
M2 cells at confluence were treated in osteogenic medium with control vehicle (C) or a combination of 22R and 20S oxysterols, at the indicated concentrations. ALP activity was measured after 3 days as described above. […] FIG. 3B is a bar graph depicting the effect of a combination of oxysterols at various doses on alkaline phosphatase activity in M2 cells.
Test 2: M2 cells were grown in RPMI medium containing 10% fetal bovine serum (FBS). At confluence, the cells were treated in RPMI containing 5% FBS plus ascorbate at 50 μg/ml and β-glycerophosphate at 3 mM to induce osteoblastic differentiation. Adipogenic differentiation was induced by treating the cells in growth medium plus 10 ˜M troglitazone. A vehicle (C) or oxysterol treatment was applied to cells in a variety of doses (in μM): 20S-Hydroxycholesterol, 25-Hydroxycholesterol, 22R-Hydroxycholesterol; 22S-Hydroxycholesterol; 7-ketocholesterol. Cells were always treated at 90% confluence. After 4 days, alkaline phosphatase activity was determined in whole cell lysates and normalized to protein. Alternatively, MSC cultures were prepared and treated with oxysterols as described above. Cells were treated at 90% confluence with the combination of 22R-Hydroxycholesterol and 20S-Hydroxycholesterol, each at 5 uM, for 4 to 96 hours. The oxysterols where removed and fresh media without oxysterols was added for a total duration of 96 hours. Alkaline phosphatase activity was measured in whole cell extracts and normalized to protein.
M2 cells were treated at 90% confluence with vehicle (C), or oxysterols 20S-Hydroxycholesterol or 22S-Hydroxycholesterol at (0.5 μM) or (1 μM), in the absence or presence of cytochrome P450 inhibitor (SKF525A 10 μM (+)). MSC cultures were also treated at 90% confluence with vehicle (C), or 20S-Hydroxycholesterol (2 μM), in the absence or presence of cytochrome P450 […] (Benzylimidazole 50 μM) or SKF525A (10 μM). After 4 days, alkaline phosphatase activity was measured in whole cell extracts and normalized to protein.
Next, a combination of 22R and 20S oxysterols (RS, 2.5 μM each) were added in the presence or absence of SC as indicated. After 3 days, ALP activity was measured as described earlier. […] (B) M2 cells were treated as described in (A) and after 10 days matrix mineralization in cultures was quantified by a ^45Ca incorporation assay as described earlier.

Data set [2] concerns M2 cells. Briefly: Adipogenesis of troglitazone-treated M2 cells (oil Red O staining, adipocyte count). It is filed as cell-based, mouse. Particulars: M2 cells treated with Tro 10 μM, oxysterols 10 μM, 10 days. As for the experimental part: (§2) Von Kossa and oil red O staining—Matrix mineralization in cell monolayers was detected by silver nitrate staining as previously described. Oil red O staining for detection of adipocytes was performed as previously described.
Test 1: M2 cells at 90% confluence were treated with vehicle (C), PPAR-γ activator, troglitazone 10 uM (Tro), alone or in combination with 10 μM oxysterols 20S-, 22R-, or 25S-hydroxycholesterol. After 8 days, adipocytes were identified by oil Red 0 staining and quantified by counting under a phase contrast microscope. FIG. 6A is a bar graph depicting the effect of oxysterols on reducing adipogenesis of MSC.
Test 2: (A) M2 cells at confluence were treated in RPMI containing 10% FBS with control vehicle or 10 μM troglitazone (Tro) in the absence or presence of 10 μM 20S or 22S oxysterols. After 10 days, adipocytes were visualized by oil Red O staining and quantified by light microscopy, shown in (B). Data from a representative of four experiments are shown, reported as the mean SD of quadruplicate determinations (p<0.001 for Tro vs. Tro+20S and Tro+22S). (C) M2 cells were treated at confluence with 10 μM Tro, alone or in combination with 10 μM 20S oxysterol. After 10 days, total RNA was isolated and analyzed for lipoprotein lipase (LPL), adipocyte P2 gene (aP2) or 18S rRNA expression by Northern blotting as described (Ref). Data from densitometric analysis of the Northern blot is shown in (D) as the average of duplicate samples, normalized to 18S rRNA.

The subject of data set [3] is M2-10B4 mouse marrow stromal cell line. The data set can be described thus: Matrix mineralization in M2 cells (von Kossa staining, 45Ca incorporation assay). As to conditions: 22R+20S, 10 days, SC-560 10 μM, ACA 25 μM, AACOCF3 20 μM, PD98059 20 μM. It counts as cell-based. As for the experimental part:
as §1, §2
^45Ca incorporation assay—Matrix mineralization in cell monolayers was quantified using the ^45Ca incorporation assay as previously described.
M2 cells at confluence were treated in osteogenic medium with control vehicle or 5 μM oxysterols, alone or in combination as indicated. After 14 days, mineralization was identified by a von Kossa staining, which appears black. FIG. 3C is a depiction of von Kossa staining of M2 cells exposed to various conditions.
M2 cells were treated with control vehicle (C) or a combination of 22R and 20S oxysterols at increasing concentrations. After 14 days, matrix mineralization in cultures was quantified using a ^45Ca incorporation assay. […] FIG. 3D is a bar graph depicting the effect of a combination of oxysterols at various doses on calcium incorporation in M2 cells.
(§3) Next, a combination of 22R and 20S oxysterols (RS, 2.5 μM each) were added in the presence or absence of SC as indicated. After 3 days, ALP activity was measured as described earlier. […] (B) M2 cells were treated as described in (A) and after 10 days matrix mineralization in cultures was quantified by a ^45Ca incorporation assay as described earlier. Results from a representative of three experiments are shown, reported as the mean±SD of quadruplicate determinations, normalized to protein concentration. (C) M2 cells were pretreated with 20 μM SC for 4 hours, followed by the addition of RS in the presence or absence of SC as described above. After 8 days, total RNA was isolated and analyzed for osteocalcin (Osc) and 18S rRNA expression by Northern blotting as previously described. Data from densitometric analysis of the Northern blot is shown in (D) as the average of duplicate samples, normalized to 18S rRNA. (E) M2 cells at confluence were pretreated for 2 hours with control vehicle (C), or PLA2 inhibitors ACA (25 μM) and AACOCF3 (AAC, 20 μM), in osteogenic medium. Next, a combination of 22R and 20S oxysterols (RS, 2.5 μM) was added in the presence or absence of the inhibitors as indicated. After 3 days, ALP activity was measured as previously described. Data from a representative of three experiments are shown, reported as the mean±SD of quadruplicate determinations, normalized to protein concentration (p<0.01 for RS vs. RS+ACA and RS+AAC). (F) M2 cells were treated as described in (E). After 10 days, matrix minerliazation in cultures was quantified using a ^45Ca incorporation assay as previously described. Results from a representative of three experiments are shown, reported as the mean of quadruplicate determinations±SD, normalized to protein concentration (p<0.01 for RS vs. RS+ACA and RS+AAC).
(A) M2 cells at confluence were pretreated for four hours with RPMI containing 1% FBS, followed by treatment with control vehicle or 5 μM 20S oxysterol for 1, 4, or 8 hours. Next total cell extracts were prepared and analyzed for levels of native or phosphorylated ERK (pERK) using specific antibodies as previously described.

Data set [4] deals with marrow stromal cells. The data set can be described thus: Osteogenic activity of marrow stromal cells (alkaline phosphatase, mineral formation), overall. It is filed as cell-based, mouse. Particulars: M2 cells; SC-560 at 1-20 μM; NS-398 at 20 μM. As for the experimental part:
as §3, with “Data from a representative of three experiments are shown, reported as the mean±SD of quadruplicate determinations, normalized to protein concentration (p<0.01 for RS vs. RS+ACA and RS+AAC). (F) M2 cells were treated as described in (E).” left out, “Results from a representative of three experiments are shown, reported as the mean of quadruplicate determinations±SD, normalized to protein concentration (p<0.01 for RS vs. RS+ACA and RS+AAC).” left out

For data set [5], the system named is M2 cells. The data set can be described thus: Toxicity of COX inhibitors in M2 cell cultures. It is filed as cell-based, mouse.

Take `CC(C)CCC[C@@H](C)[C@H]1CC[C@H]2[C@@H]3C(=O)C=C4C[C@@H](O)CC[C@]4(C)[C@H]3CC[C@]12C` [7K, 7-ketocholesterol, reference compound]: the “induction of alkaline phosphatase activity” value in data set [1] (osteogenic medium, 10 μM oxysterols, 3 days) is “did not induce”. For the same compound, in data set [2], the inhibition of adipogenesis entry is recorded as “unable to inhibit”.

On to `CCCCC/C=C\C/C=C\C/C=C\C/C=C\CCCC(=O)C(F)(F)F` [AACOCF3], for which the “inhibition of oxysterol-induced alkaline phosphatase activity” value in data set [1] is listed as “inhibited”. In data set [3], the “inhibition of oxysterol-induced mineralization” value is on record as “inhibited”.

As for `CCCCCc1ccc(/C=C/C(=O)Nc2ccccc2C(=O)O)cc1` [ACA], in data set [1], the “inhibition of oxysterol-induced alkaline phosphatase activity” value is listed as “inhibited”. Further, the “inhibition of oxysterol-induced mineralization” value in data set [3] is given as “inhibited”.

Consider `CS(=O)(=O)Nc1ccc([N+](=O)[O-])cc1OC1CCCCC1` [NS-398], for which the “inhibition of the osteogenic effects of oxysterol combinations” value in data set [4] is recorded as “negligible inhibitory effects”. In addition, the highest non-toxic dose in data set [5] is 20 µM.

As for `COc1cccc(-c2cc(=O)c3ccccc3o2)c1N` [PD98059], the “inhibition of oxysterol-induced mineralization” value in data set [3] is listed as “inhibited”.

Take `CCCCC[C@H](O)/C=C/[C@H]1[C@H](O)CC(=O)[C@@H]1C/C=C\CCCC(=O)O` [PGE2, prostaglandin E2]: in data set [1] (1 μM PGE2 (data not shown)), the “reversal of the effect of the COX-1 inhibitor on oxysterol-induced alkaline phosphatase activity” value is reported as “reversed”.

On to `CCCC(C(=O)OCCN(CC)CC)(c1ccccc1)c1ccccc1.Cl` [SKF525A], for which the “effect on the osteogenic effects of the oxysterols (alkaline phosphatase activity)” value in data set [1] (20S or 22S 0.5 or 1 μM, SKF525A 10 μM, 4 days) was “potentiated”.

`CCCCC/C=C\C/C=C\C/C=C\C/C=C\CCCC(=O)O` [arachidonic acid]: the “reversal of the effect of the PLA2 inhibitors on oxysterol-induced alkaline phosphatase activity” value in data set [1] (25 μM arachidonic acid (data not shown)) was “reversed”.
